Experimental data taken from PubChem BioAssay (NCI).
“And” between values parts separate entries of the source, which are not always exact repeats. Equal values may be shown once.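 48-hour exposure; five concentrations; linearly interpolated endpoints. Abbreviation: GI50, concentration required for 50% inhibition of growth. TGI denotes the concentration required for complete inhibition of growth.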

Key:
Test in all cases: NCI tumour cell line growth inhibition, 48 h
SF-539 CNS = system: SF-539 CNS
DU-145 prostate = system: DU-145 prostate
MDA-N = system: MDA-N
UO-31 renal = system: UO-31 renal
ACHN renal = system: ACHN renal
SK-MEL-28 melanoma = system: SK-MEL-28 melanoma
OVCAR-4 ovarian = system: OVCAR-4 ovarian
NCI-H23 lung = system: NCI-H23 lung
MALME-3M melanoma = system: MALME-3M melanoma
OVCAR-3 ovarian = system: OVCAR-3 ovarian

With `CC1=NN(c2ccccc2)C(=O)/C1=C\c1c(C)[nH]n(-c2ccccc2)c1=O` the TGI (SF-539 CNS) was over 100 µM, the TGI (DU-145 prostate) was over 100 µM and the TGI (MDA-N) was over 100 µM. It also gave a TGI (UO-31 renal) of over 100 µM, a TGI (ACHN renal) of over 100 µM and a TGI (SK-MEL-28 melanoma) of over 100 µM. It also gave a TGI (OVCAR-4 ovarian) of over 100 µM, a TGI (NCI-H23 lung) of over 100 µM and a TGI (MALME-3M melanoma) of over 100 µM. The TGI (OVCAR-3 ovarian) was over 100 µM.
For `Cc1oc(N)c(S(=O)(=O)/C(C#N)=C/c2ccccc2[N+](=O)[O-])c1C`, the TGI (SF-539 CNS) was 61.4 µM, the TGI (DU-145 prostate) was over 100 µM and the TGI (MDA-N) was 46.9 µM. For the same compound, the TGI (UO-31 renal) was 30.6 µM, the TGI (ACHN renal) was over 100 µM and the TGI (SK-MEL-28 melanoma) was 64.2 µM. For the same compound, the TGI (OVCAR-4 ovarian) was over 100 µM, the TGI (NCI-H23 lung) was 79.4 µM and the TGI (MALME-3M melanoma) was over 100 µM. The TGI (OVCAR-3 ovarian) was 46.3 µM.
Work on `C(=Nc1ccc(-c2nc3ccccc3s2)cc1)c1cccs1` yielded a TGI (SF-539 CNS) of over 100 µM, a TGI (DU-145 prostate) of over 100 µM and a TGI (MDA-N) of over 100 µM. It also gave a TGI (UO-31 renal) of over 100 µM, a TGI (ACHN renal) of over 100 µM and a TGI (SK-MEL-28 melanoma) of over 100 µM. For the same compound, the TGI (OVCAR-4 ovarian) was over 100 µM, the TGI (NCI-H23 lung) was over 100 µM and the TGI (MALME-3M melanoma) was over 100 µM. It also gave a TGI (OVCAR-3 ovarian) of over 100 µM.
`O=C1CC(c2cccc([N+](=O)[O-])c2)C2(C(=O)NC(=S)NC2=O)C(c2cccc([N+](=O)[O-])c2)C1` (configuration not stated) was tested, and the TGI (SF-539 CNS) was over 100 µM, the TGI (DU-145 prostate) was over 100 µM and the TGI (MDA-N) was over 100 µM. For the same compound, the TGI (UO-31 renal) was over 100 µM, the TGI (ACHN renal) was over 100 µM and the TGI (SK-MEL-28 melanoma) was over 100 µM. It also gave a TGI (OVCAR-4 ovarian) of over 100 µM, a TGI (NCI-H23 lung) of over 100 µM and a TGI (MALME-3M melanoma) of 53.2 µM. It also gave a TGI (OVCAR-3 ovarian) of over 100 µM.
Compound `CC(Cl)(CCC(Cl)C(C)(C)Cl)C(=O)CBr` (configuration not stated) has a TGI (SF-539 CNS) of 29.8 µM, a TGI (DU-145 prostate) of 33.7 µM and a TGI (MDA-N) of 21.3 µM. For the same compound, the TGI (UO-31 renal) was 22 µM, the TGI (ACHN renal) was 20.9 µM and the TGI (SK-MEL-28 melanoma) was 31.6 µM. It also gave a TGI (OVCAR-4 ovarian) of 7.46 µM, a TGI (NCI-H23 lung) of 39.5 µM and a TGI (MALME-3M melanoma) of 24.8 µM. The TGI (OVCAR-3 ovarian) was 29.5 µM.
For `CC(C)(C)c1cc(C(C)(C)C)c(SC2OC(CO)C(O)C(O)C2O)c(O)c1O` (configuration not stated), the TGI (SF-539 CNS) was 12.7 µM, the TGI (DU-145 prostate) was 31.8 µM and the TGI (MDA-N) was 15.8 µM. For the same compound, the TGI (UO-31 renal) was 79.2 µM, the TGI (ACHN renal) was 22.8 µM and the TGI (SK-MEL-28 melanoma) was 70.5 µM. It also gave a TGI (OVCAR-4 ovarian) of over 61.9 µM, a TGI (NCI-H23 lung) of 17.9 µM and a TGI (MALME-3M melanoma) of 26.9 µM. It also gave a TGI (OVCAR-3 ovarian) of 28.4 µM.
With `CCN(CC)CC[n+]1ccc2c(C)c3[nH]c4ccccc4c3c(C)c2c1` the GI50 (SF-539 CNS) was 0.921 µM, the TGI (SF-539 CNS) was 1.66 µM and 5.78 µM and 2.12 µM and the TGI (DU-145 prostate) was 3.72 µM. The TGI (MDA-N) was 1.99 µM, the GI50 (UO-31 renal) was 22.6 µM and 10.5 µM and 4.12 µM and the TGI (UO-31 renal) was 78.6 µM and 44 µM and 16.8 µM. For the same compound, the TGI (ACHN renal) was 32.8 µM, the GI50 (SK-MEL-28 melanoma) was 1.13 µM and the TGI (SK-MEL-28 melanoma) was 1.3 µM and 6.15 µM and 2.1 µM. For the same compound, the GI50 (OVCAR-4 ovarian) was 0.192 µM and 0.799 µM and 0.0865 µM, the TGI (OVCAR-4 ovarian) was 1.2 µM and 4.27 µM and 0.483 µM and the GI50 (NCI-H23 lung) was 0.394 µM. For the same compound, the TGI (NCI-H23 lung) was 2.22 µM and 2.24 µM and 4.13 µM, the GI50 (MALME-3M melanoma) was 0.374 µM and the TGI (MALME-3M melanoma) was 1.92 µM and 2.27 µM and 1.15 µM. The GI50 (OVCAR-3 ovarian) was 0.934 µM and the TGI (OVCAR-3 ovarian) was 2.02 µM and 4.55 µM and 2.07 µM.
`O=[N+]([O-])/C(Cl)=C(\NCCO)C(Cl)=C(Cl)Cl` gave a TGI (SF-539 CNS) of over 100 µM, a TGI (DU-145 prostate) of over 100 µM and a TGI (MDA-N) of over 96.3 µM. For the same compound, the TGI (UO-31 renal) was over 86.4 µM, the TGI (ACHN renal) was over 100 µM and the TGI (SK-MEL-28 melanoma) was over 100 µM. The TGI (OVCAR-4 ovarian) was over 100 µM, the TGI (NCI-H23 lung) was over 100 µM and the TGI (MALME-3M melanoma) was 65 µM. The TGI (OVCAR-3 ovarian) was over 100 µM.
